This note sets out measurements from article PMC6146907, “Structural Determinants of the Stability of Enzyme‐Responsive Polyion Complex Nanoparticles Targeting Pseudomonas aeruginosa’s Elastase” (Chemnanomat, 2018).

Peptide text beside a SMILES is read from it.

The target in this data set is Pseudomonas aeruginosa Elastase (LasB) (Pseudomonas aeruginosa, UniProt P14756). Particulars: fluorescamine assay; 125 μL 1 mM peptide + 125 μL buffer with 15 μg LasB; 25 mM Na2B4O7 pH 8.0, 10 mM CaCl2; 37 °C, 4 h; fluorescence ex 355/em 460 nm; normalised to P5 = 100%; n=3.
Sequence of Pseudomonas aeruginosa Elastase (LasB) (P14756 198-498): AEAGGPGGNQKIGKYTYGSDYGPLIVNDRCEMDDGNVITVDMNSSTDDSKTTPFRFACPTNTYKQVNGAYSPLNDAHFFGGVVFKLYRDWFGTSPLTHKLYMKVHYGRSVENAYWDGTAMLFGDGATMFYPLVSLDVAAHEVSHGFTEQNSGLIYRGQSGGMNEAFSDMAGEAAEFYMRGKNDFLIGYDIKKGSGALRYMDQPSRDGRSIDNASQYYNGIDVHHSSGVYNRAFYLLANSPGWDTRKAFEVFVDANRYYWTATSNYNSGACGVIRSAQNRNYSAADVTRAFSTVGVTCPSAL

Procedure: P5’s sequence should be formed following LasB‐mediated hydrolysis of the −GLAE− sequence, present in all the peptides reported.
One‐way ANOVA, followed by Tukey's test (CI=95%,) was used to test for significance. Statistical significance was determined ‘n/s’=not significant, *** p<0.001.
Stock solutions of peptide (1 mM) or succinyl casein (0.5 mg/mL) were prepared in 25 mM Na2B4O7 buffer at pH 8.0 with 10 mM CaCl2 and 10% v/v DMSO. 125 μL of these substrate solutions were added to a 96‐well black‐walled microplate and mixed with 125 μL of the same buffer without DMSO, containing 15 μg of enzyme (LasB or HLE). Solutions of enzymes and substrates alone were prepared as controls. Every sample was prepared in triplicate. The microplate was incubated at 37 °C for 4 hours under orbital shaking. After 4 hours, 50 μL of 0.1 M EDTA in water at pH 8.0 were added to each well to quench all enzymatic activity. Then, each sample was mixed in a 1 : 1 volume ratio with a 1 mM solution of fluorescamine19 in methanol. […] After this time, fluorescence was measured exciting at 355 nm and reading the emission at 460±10 nm. […]
fluorescence is related to the elastase-mediated hydrolysis of the peptides. […]
of the elastases and the fluorescence observed is represented by black bars . […]
peptides,[4] was incubated in the absence of elastase and the fluorescence obtained was associated

With `CC(=O)N[C@@H](CS)C(=O)N[C@@H](CCC(=O)O)C(=O)N[C@@H](CCC(=O)O)C(=O)NCC(=O)N[C@@H](CC(C)C)C(=O)N[C@@H](C)C(=O)N[C@@H](CCC(=O)O)C(=O)N[C@@H](CCC(=O)O)C(=O)N[C@@H](CS)C(=O)O` [P2SH] (Ac-CEEGLAEEC-OH), the “susceptibility to LasB hydrolysis (relative amine content)” value is “least active”.

As for `CC(=O)N[C@@H](CS)C(=O)N[C@@H](CCC(=O)O)C(=O)N[C@@H](CCC(=O)O)C(=O)N[C@@H](CCC(=O)O)C(=O)NCC(=O)N[C@@H](CC(C)C)C(=O)N[C@@H](C)C(=O)N[C@@H](CCC(=O)O)C(=O)N[C@@H](CCC(=O)O)C(=O)N[C@@H](CCC(=O)O)C(=O)N[C@@H](CS)C(=O)O` [P3SH] (Ac-CEEEGLAEEEC-OH), the “susceptibility to LasB hydrolysis (relative amine content)” value was “highest susceptibility”.
